Data as given in patent US20240342195A1, “AGENT FOR COMBINATION USE COMPRISING T CELL AND/OR B CELL ACTIVITY REGULATOR” (TOKAI UNIVERSITY EDUCATIONAL SYSTEM, priority 2021, published 2024).

Tests used:
[1] = test system: T cell (CD3 gated) in human PBMCs; assay: atezolizumab addition experiment, PD-L1/PD-1 expression on T cell by FCM; format: cell-based; details: 3 days
Experimental: (§1) As for an experiment of atezolizumab addition, 0 to 200 μM P4 or COR, 1 μM TSST-1, and 100 μg/mL atezolizumab were added to PBMCs, and the resultant was cultured for 72 hours at 37° C. in 5% CO2, followed by analysis by FCM.

humanized mouse = assay: PD-L1/PD-1 expression in humanized mouse in vivo after atezolizumab administration; details: data not shown
[2] = test system: human breast cancer cell line MDA-MB-231; assay: cancer-bearing CMV-NOG-hIL-4-Tg mouse with MDA-MB-231 and human PBMCs transplanted; format: in vivo
Experimental: 5×10^6 MDA-MB231 was subcutaneously administered to a ventral portion of a 6- to 7-week-old NOG-hIL-4-Tg mouse (a hIL-4 concentration in blood of 100 pg/mL or more). Diameters of the tumor along the ventral and in a direction at a right angle to the ventral were measured with a caliper every 2 days from one week after the administration, and the product thereof was defined as the size of the tumor. Two weeks after the tumor transplantation, 5×10^6 PBMCs were intravenously transplanted to the cancer-bearing mice and non-cancer-bearing mice as a control group. The measurement of the tumor diameters was similarly continued after the PBMC transplantation. The non-cancer bearing mice were divided into two groups, and PBS or atezolizumab ([…], 3 times (every 10 days)) was administered to each group. The cancer-bearing mice were divided into three groups, and PBS, atezolizumab ([…], 3 times (every 10 days)), or liposome (amount equivalent to 225 μg of atezolizumab and 40 μg of P4/dose, 6 times (every 5 days)) was administered to each group.
After 4 weeks, the mice were anesthetized to collect heparinized blood, and were euthanized. From various lymph tissues collected, cells were collected, and erythrocytes were removed therefrom with a hemolysis buffer to prepare a cell suspension. The number of cells therein was counted, and a human leukocyte fraction was subjected to flowcytometry (FCM) analysis. A tumor tissue was used for immunohistochemical staining.
For human immunocytochemistry, the same antibodies as those used in Example 1 were used. Cells were reacted with an appropriate amount of each of various, fluorescent-labeled antibodies for 15 minutes at 4° C., and washed with PBS containing 1% BSA. The resultant cells were analyzed with FACS Fortessa or Verse (manufactured by BD Bioscience). Living cells were gated, and human CD45-positive cells were further gated to obtain a human leukocyte fraction. These cells were further divided with a cell surface marker to obtain lymphocyte subsets. For data analysis, FlowJo (BD) was used.
A tissue of the mouse was immobilized with 20% formalin (manufactured by Wako Pure Chemical Industries, Ltd.), and embedded in paraffin. The resultant paraffin block was sliced, and the resultant was subjected to deparaffinization, mounted on a slide glass, and stained with hematoxylin and eosin (HE). In immunohistochemical staining with an anti-human CD8 antibody, the slide was subjected to a heat treatment at 120° C. for 20 minutes, and subjected to an endogenous peroxidase treatment through a reaction with 0.3% H2O2/MetOH at room temperature for 10 minutes. Thereafter, the resultant was blocked with 1% goat serum, and anti-human CD8 (manufactured by Dako) was added thereto, followed by a reaction at 25° C. for 60 minutes. The resultant slide was washed 3 times with 0.01 M PBS for 5 minutes, followed by a reaction at 25° C. for 60 minutes with simple stain MAX-PO (manufactured by Nichirei Biosciences Inc.). The resultant slide was washed 3 times with 0.01 M PBS for 5 minutes, and colored with a DAB solution. The resultant was washed with running water for 3 minutes, and stained with hematoxylin, followed by dehydration and penetration/encapsulation.

[3] = test system: B cell (CD19 gated) in human PBMCs; assay: atezolizumab addition experiment, PD-L1/PD-1 expression on B cell by FCM; format: cell-based; details: 3 days
Experimental: as §1

JEG-3 = assay: proliferating ability of cell line cultured with P4 or COR; format: cell-based, human; details: 200 μM or less, cultured 10 days
Experimental: (§2) Each of human choriocarcinoma cell line JEG-3, BeWo, and embryonic kidney cell line HEK293 was cultured for 10 days at 37° C. in 5% CO2 in a 10% Fetal Calf Serum (FCS)-containing DMEM (Gibuco) to which water-soluble progesterone (P4; water soluble) (Sigma) or cortisol (COR) (Sigma) was added in various concentrations. Each of mouse myeloma cell line P3-X63-Ag8-U1 (P3X) and mouse lymphoma cell line A20 was cultured for 3 days at 37° C. in 5% CO2 in 10% FCS-containing RPMI 1640 to which P4 or COR was added in various concentrations. Proliferation of the cells was evaluated by measuring the number of the cells.

BeWo = assay: as above; format: cell-based, human; details: 200 μM or less, cultured 10 days
Experimental: as §2

HEK293 = assay: as above; format: cell-based, human; details: 200 μM or less, cultured 10 days
Experimental: as §2

B cell in PBMCs [4] = assay: restimulation experiment (transient vs continuous P4/COR), PD-L1 on B cells; format: cell-based, human; details: addition of 200 μM; TSST-1 3 days
Experimental: (§3) In a restimulation experiment, PBMCs were cultured for 6 hours at 37° C. in 5% CO2 in 10% FCS-containing RPMI 1640 to which 200 μM P4 or COR was added. These cells were washed, adjusted to a final concentration of 1×10^6/mL, and cultured again in the presence or absence of 200 μM P4 or COR with stimulation by 1 μM TSST-1. After 72 hours, the resultant cells were collected to be analyzed by FCM.

[5] = test system: Human peripheral blood mononuclear cells (PBMCs); assay: number of cells of TSST-1-stimulated PBMCs cultured with P4 or COR; format: cell-based; details: PBMCs + TSST-1; 3 days
Experimental: (§4) The PBMCs (final concentration: 1×10^6/mL) were cultured for 3 days at 37° C. in 5% CO2 in 10% FCS-containing RPMI 1640 to which P4 or COR was added in various concentrations with stimulation by 1 μg/mL of toxic shock syndrome toxin-1 (TSST-1). These cells were collected, washed with PBS, and dispensed into a Fisher tube in an amount of 1×10^6 cells/tube. For analysis of a human cell surface marker, a fluorescent-labeled anti-human monoclonal antibody (mAbs) was used. The cells were stained with the mAbs, a reaction was performed for 15 minutes at 4° C., and the resultant was washed with PBS containing 1% (w/v) BSA. Then, the resultant was analyzed by FACS Fortessa, or FACS Verse (BD Bioscience, Franklin Lakes, NJ). In the analysis, a leukocyte gated or lymphocyte gated cells were further gated by expression of human CD45, and then the analysis was performed. A culture supernatant was collected, and 25 μL thereof was dispensed to quantitatively determine cytokine with Legend Plex™ kit from BioLegend.

[6] = test system: CD4 and CD8 T cells in PBMCs; assay: restimulation experiment (transient vs continuous P4/COR), PD-1/PD-L1 on T cells; format: cell-based, human; details: TSST-1 3 days
Experimental: as §3

[7] = test system: Hu-PBMC-NOG (GVHD onset model); assay: GVHD onset model: human PBMCs transplanted to NOG mouse, P4 or COR administered subcutaneously; format: in vivo; details: 2 mg/head subcutaneously twice a week, 4 weeks
Experimental: In the analysis using the GVHD model, PBMCs prepared in the same manner as described above were washed with PBS, and 2.5×10^6 PBMCs were intravenously transplanted to each 8- to 9-week-old NOG mouse. […] At the same time as the administration, the weight was measured. After 4 weeks, the mouse was anesthetized to collect heart blood, and euthanized. From various lymphoid organs excised, human cells were prepared, hemolyzed, and then subjected to FCM. Besides, the lung and the liver were excised, and immunohistochemically stained as follows. A tissue of the mouse was immobilized with 20% formalin (Wako Pure Chemical Industries, Ltd.), and embedded in paraffin. The obtained paraffin block was sliced, and the resultant was subjected to deparaffinization, mounted on a slide glass, and stained with hematoxylin and eosin (HE). In immunohistochemical staining with an anti-human CD45 antibody, the slide was subjected to a heat treatment at 97° C. for 20 minutes, and subjected to an endogenous peroxidase treatment through a reaction with 0.3% H2O2/MetOH at room temperature for 10 minutes. Thereafter, the resultant was blocked with 1% goat serum, and anti-human CD45 (Dako) was added thereto, followed by a reaction overnight at 4° C. The resultant slide was washed 3 times with 0.01 M PBS for 5 minutes, and colored with a DAB solution. The resultant was washed with running water for 3 minutes, and stained with hematoxylin, followed by dehydration and penetration/encapsulation.

[8] = test system: CD4 and CD8 T cells in PBMCs; assay: FCM analysis of activation/exhaustion markers (CD25, PD-1) on T cells of TSST-1-stimulated PBMCs; format: cell-based, human; details: 20 to 200 μM
Experimental: as §4

B cell in PBMCs [9] = assay: FCM analysis of PD-1 on B cells of TSST-1-stimulated PBMCs; format: cell-based, human; details: TSST-1 and P4/COR stimulation; data not shown
Experimental: as §4

P3-X63-Ag8-U1 (P3X) = assay: proliferating ability of cell line cultured with P4 or COR; format: cell-based, mouse; details: 2 μM or less, cultured 3 days
Experimental: as §2

A20 = assay: as above; format: cell-based, mouse; details: 2 μM or less, cultured 3 days
Experimental: as §2

PBMC-NOG-hIL-4-Tg mouse = assay: transplantation of P4/COR-cultured PBMCs to NOG-hIL-4-Tg mouse immunized with CH401MAP; format: in vivo; details: PBMCs cultured with 200 μM for 6 hours before transplantation
[10] = atezolizumab 450 pg/head/dose 3 times, liposome equivalent to 225 μg atezolizumab and 40 μg P4/dose 6 times, 4 weeks

Molecule: atezolizumab
- PD-1 expression in a T cell [1]: increased
- PD-L1 expression in a T cell [1]: reduced
- PD-1 expression (humanized mouse): tended to be increased
- PD-L1 expression (humanized mouse): tended to be reduced
- engraftment of a B cell (CD19-positive) in spleen cells [2, 10]: reduced
- ratio of a T cell (CD3-positive) in spleen cells [2, 10]: increased
- ratio of the CD8-positive killer T cell in spleen cells [2, 10]: increased
- increase of the tumor (tumor diameter) ([2]; compared with PBS administration group): suppressed
- human (killer) T cell infiltration into the tumor mass ([2]; histochemical staining (anti-human CD8), liposome compared with atezolizumab alone): obviously observed
- PD-1 expression in a B cell [3]: increased

Molecule: C[C@]12CCC(=O)C=C1CC[C@@H]1[C@@H]2[C@@H](O)C[C@@]2(C)[C@H]1CC[C@]2(O)C(=O)CO [COR, cortisol]
- cell proliferating ability (JEG-3): minimally changed
- cell proliferating ability (BeWo): minimally changed
- cell proliferating ability (HEK293): minimally changed
- PD-L1 expression in B cell (B cell in PBMCs [4]): tended to reduce PD-L1 expression
- number of cells vs control group [5]: substantially no difference
- ratio of later-phase activated (PD-1/PD-L1-positive) cells ([6]; CD4 and CD8 T cells, continuously added, 200 μM): not suppressed as much as that obtained by P4 addition
- CD8 T cell activation vs control group ([6]; transiently added (200 μM 6 hours, washed)): significantly suppressed
- GVHD symptoms [7]: reduced GVHD symptoms
- lymphocyte engraftment [7]: lymphocyte engraftment failure was also caused
- lymphocytes [7]: reduced lymphocytes
- PD-1 expression on T cells ([8]; day 3): not suppressed depending on the COR concentration
- activation marker-negative (non-activated) T cells ([8]; day 3): not largely increased
- number of activated cells ([8]; day 3, data not shown): reduced
- ratio of later-phase activated (CD25-positive PD-1-positive) T cells ([8]; CD4 and CD8 T cells, day 3): did not depend on the COR concentration
- PD-1 expression on B cell (B cell in PBMCs [9]): not increased
- PD-L1 expression in a B cell ([3]; 0 to 200 μM, TSST-1): showed PD-L1 expression
- proliferation (P3-X63-Ag8-U1 (P3X)): almost completely suppressed
- proliferation (A20): almost completely suppressed
- engraftment ability of transplanted PBMCs (PBMC-NOG-hIL-4-Tg mouse; analysis after 4 weeks): low engraftment ability
- specific antibody production (CH401MAP) (PBMC-NOG-hIL-4-Tg mouse; plasma after 4 weeks): suppressed
